# Assay results taken from patent publication US11964960B2 (Cornell University, priority 2018, dated 2024).
# How the values were obtained:
# S1PR2 [1] = biological target: T1, S1PR2 (Homo sapiens, UniProt O95136); experiment: FLIPR calcium activation - antagonist assay; assay type: cell-based; design: Flag; expressed in transfected cells; host or cells: Chinese hamster ovary (CHO) cells, doxycycline-inducible (CHO-S1P2-FL / CHO-S1PR2 FL); settings: CHO-S1PR2 FL cells, 1 hour compound incubation
# Method: FLIPR Calcium Activation—Antagonist Assay
# An assay was performed using Fluo-4 NW Calcium activation kit (#F36206) purchased from Molecular Probes/Life Technologies, Grand Island, NY. Calcium assay was performed according to the manufacturer's instructions. Briefly, CHO-S1PR2 FL cells (5×10^4 cells (for 384 well plate) or 7.5×10^4 cells (for 96 well plate)) were seeded 24 hours prior to experiment in serum free IMDM media supplemented with 0.1% fatty acid free BSA/PBS (SFM). After starvation, cells were stimulated with the compounds described herein (1 nM-10 μM) for 1 hour in SFM at room temperature. Cells were then washed with PBS and prepared for Calcium induction assay as instructed in Fluo-4 NW Calcium activation kit protocol. For calcium induction, 100 nM […] or 1 μM ATP were added in ligand plate places in the Hamamatsu FDSS6000 drug screening system. Ligand was added in 15 seconds intervals for 15 min and signal ratio of […] was measured using the Hamamatsu FDSS6000 instrument.
# Target sequence in this assay (O95136 whole entry, species assumed): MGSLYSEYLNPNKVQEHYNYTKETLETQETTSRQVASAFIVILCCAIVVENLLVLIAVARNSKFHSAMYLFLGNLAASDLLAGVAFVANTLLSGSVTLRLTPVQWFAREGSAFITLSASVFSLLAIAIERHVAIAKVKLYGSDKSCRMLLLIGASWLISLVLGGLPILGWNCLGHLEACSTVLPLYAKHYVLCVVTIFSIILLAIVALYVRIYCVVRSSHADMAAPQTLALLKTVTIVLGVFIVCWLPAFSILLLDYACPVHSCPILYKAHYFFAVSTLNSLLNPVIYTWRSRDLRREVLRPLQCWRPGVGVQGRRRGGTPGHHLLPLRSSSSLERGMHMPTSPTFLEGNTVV
# S1P2 = biological target: T2, S1P2 (Homo sapiens, UniProt O95136); experiment: GLISA RhoA activation - antagonist assay; assay type: cell-based; settings: CHO-S1P2-FL cells; for inhibition at 1 µM: 1 μM compound; for IC50: 1 hour compound incubation, then for 5 min
# T2 construct: Flag; expressed in transfected cells; host or cells: Chinese hamster ovary (CHO) cells, doxycycline-inducible (CHO-S1P2-FL / CHO-S1PR2 FL)
# T2 sequence (O95136 whole entry, species assumed): as above
# Method: GLISA RhoA Activation—Antagonist Assay
# GLISA assays were performed using RhoA (BK124) activation kit purchased from Cytoskeleton Inc., Denver, CO Doxycycline-inducible Flag-tag S1P2 expressing Chinese hamster ovary (CHO) cells (CHO-S1P2-FL) were seeded in a 6-well plate, 1.5×10^5 cells per well. Cells were stimulated with […] of Doxycycline to induce S1P2 expression in serum free IMDM media with 0.1% BSA/PBS. Following day, cells were stimulated with the compounds described herein (1 nM-10 μM) or 1 μM JTE-013 for 1 hour at 37° C. Following compound incubation, cells were washed with PBS×3 and induced with 100 nM […] for 5 min. […] Protein concentration was examined using GLISA—Precision Red Advanced Protein assay reagent as described in assay manual. Lysates were immobilized on GTP-bound capture plate and GLISA assay was performed based on manufacture recommendations as reported previously.
# S1PR2 [2] = biological target: T3, S1PR2 (Mus musculus, UniProt P52592); experiment: Immunoblot analysis of S1PR2 levels in liver tissue from mouse BDL study; assay type: in vivo; settings: 30 mg/kg daily, orally; liver at end of eight-day study (FIG. 3)
# T3 construct: Liver tissues were collected at necropsy, flash frozen, and pulverized; from tissue; host or cells: mouse liver (bile duct ligation model)
# T3 sequence (P52592 whole entry): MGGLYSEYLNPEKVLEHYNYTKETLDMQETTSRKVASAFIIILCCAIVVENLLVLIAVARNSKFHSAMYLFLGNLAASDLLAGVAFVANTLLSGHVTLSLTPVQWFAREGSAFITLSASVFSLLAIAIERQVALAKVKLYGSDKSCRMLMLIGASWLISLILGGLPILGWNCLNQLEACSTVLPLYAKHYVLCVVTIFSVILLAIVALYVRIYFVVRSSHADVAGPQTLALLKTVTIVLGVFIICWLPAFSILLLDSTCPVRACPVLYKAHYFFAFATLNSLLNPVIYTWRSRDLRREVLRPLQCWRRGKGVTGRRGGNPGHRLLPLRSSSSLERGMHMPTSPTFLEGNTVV
# Excerpt: Liver tissues were collected at necropsy, flash frozen, and pulverized. The powder was resuspended in RIPA lysis buffer with PI, NAF, and sodium deoxy cholate.
# Liver samples collected in an identical manner from S1PR2 global KO and WT mice served as positive controls.
# bile duct ligated mice = experiment: Bile duct ligation (BDL) liver fibrosis model; assay type: in vivo, mouse; settings: 30 mg/kg daily
# Method: Six to eight-week-old mice were subjected to bile duct ligation to induce mouse cirrhotic liver injury model. To perform BDL, mice were subjected to a mid-abdominal incision, under general anesthesia. The common bile duct was ligated in two adjacent positions approximately 1 cm from the porta hepatis. The duct was then severed by incision between the two sites of ligation. One day after surgery, mice were administered compounds described herein at […] once daily. Drug delivery was performed by gavage in 0.5% methylcellulose with 0.1 Tween 80. Eight days after BDL surgery mice were harvested, though the harvesting can be performed at any suitable period of time, including 14 days after BDL surgery. Blood serum was collected for liver enzyme analysis and livers were harvested and were either snap frozen or fixed with 4% PFA and cryopreserved in OCT for sectioning and immunohistochemical analysis.
# To test whether the compounds described herein act as S1PR2 antagonists in vivo, their effect was tested in BDL, a clinically relevant liver cholestasis model. The common bile duct was ligated and resected as described herein to cause biliary epithelial damage. One day post-surgery, mice were treated daily with 30 mg/kg of compound 29 or JTE-013:
# In this double-blind mouse BDL study, the compounds were administered orally by gavage. […]
# [3] = test system: WT mice subjected to ischemia/reperfusion (I/R); settings: I/R (Kim 2015); cited from earlier work
# [4] = test system: BDL murine models of liver disease; settings: multiple studies (Wang 2017; Yang 2015); cited from earlier work
# S1PR2 [5] = biological target: T1, S1PR2; settings: Bioorg. Med. Chem. 21: 5373-5382 (2013); cited from earlier work
# Target sequence in this assay (O95136 whole entry): as the sequence (O95136 whole entry, species assumed) above
# [6] = cited from earlier work
SMILES,IC50 (S1PR2 [1]),inhibition at 1 µM (S1P2),IC50 (S1P2),further results
"Cc1c(C(=O)Cn2cc(Br)ccc2=O)cnn1Cc1cccc(C(=O)O)c1 [Compound 32, 3-((4-(2-(5-bromo-2-oxopyridin-1(2H)-yl)acetyl)-5-methyl-1H-pyrazol-1-yl)methyl)benzoic acid]",8700 nM,< 10%,,
"C#Cc1ccc(=O)n(CC(=O)c2cnn(Cc3ccccc3)c2C)n1 [Example 43, 2-(2-(1-Benzyl-5-methyl-1H-pyrazol-4-yl)-2-oxoethyl)-6-ethynylpyridazin-3(2H)-one]",297 nM,70%,200 nM,
"Cc1cc(=O)n(CC(=O)c2cnn(Cc3ccccc3)c2C)cc1Br [Example 40, 1-(2-(1-Benzyl-5-methyl-1H-pyrazol-4-yl)-2-oxoethyl)-5-bromo-4-methylpyridin-2(1H)-one]",395 nM,67%,,
"C#Cc1ccc(=O)n(CC(=O)c2cc(C)n(Cc3ccccc3)c2C)c1 [Compound 3, 1-(2-(1-benzyl-2,5-dimethyl-1H-pyrrol-3-yl)-2-oxoethyl)-5-ethynylpyridin-2(1H)-one]",89 nM,69%,134 nM,
"COc1cc(Br)cn(CC(=O)c2cnn(Cc3ccccc3)c2C)c1=O [Example 41, 1-(2-(1-Benzyl-5-methyl-1H-pyrazol-4-yl)-2-oxoethyl)-5-bromo-3-methoxypyridin-2(1H)-one]",694 nM,63%,,
"C#Cc1cc(C)c(=O)n(CC(=O)c2cnn(Cc3ccccc3)c2C)c1 [Example 42, 1-(2-(1-Benzyl-5-methyl-1H-pyrazol-4-yl)-2-oxoethyl)-5-ethynyl-3-methylpyridin-2(1H)-one]",567 nM,64%,,
"Cc1cc(Br)cn(CC(=O)c2cnn(Cc3ccccc3)c2C)c1=O [Example 39, 1-(2-(1-Benzyl-5-methyl-1H-pyrazol-4-yl)-2-oxoethyl)-5-bromo-3-methylpyridin-2(1H)-one]",364 nM,69%,,
"Cc1c(C(=O)Cn2cc(Br)ccc2=O)cnn1Cc1cccnc1 [Compound 33, 5-bromo-1-(2-(5-methyl-1-(pyridin-3-ylmethyl)-1H-pyrazol-4-yl)-2-oxoethyl)pyridin-2(1H)-one]",5600 nM,14%,,
Cc1nn(C)c2nc(NNC(=O)Nc3cc(Cl)nc(Cl)c3)cc(C(C)C)c12 [JTE-013],,,,"S1PR2 levels in liver (immunoblot) (S1PR2 [2]): visible; serum ALB levels (bile duct ligated mice; orally by gavage (FIG. 2C)): remained constant; survival / mortality post bile duct ligation (bile duct ligated mice; orally by gavage, from one day post-surgery, eight-day study (FIG. 1A)): lower than that observed for the vehicle arm; edema ratio [3]: dramatic decrease; infarct ratio [3]: dramatic decrease; neurological scores [3]: improved; liver injury [4]: protect against liver injury"
"Cc1c(C(=O)Cn2cc(Br)ccc2=O)cnn1Cc1ccccc1 [Compound 27, 1-(2-(1-benzyl-5-methyl-1H-pyrazol-4-yl)-2-oxoethyl)-5-bromopyridin-2(1H)-one]",11 nM,92%,4.9 nM,
"C=Cc1ccc(=O)n(CC(=O)c2cnn(Cc3ccccc3)c2C)c1 [Compound 34, 1-(2-(1-benzyl-5-methyl-1H-pyrazol-4-yi)-2-oxoethyl)-5-vinylpyridin-2(1H)-one]",150 nM,79%,82 nM,
"C#Cc1ccc(=O)n(CC(=O)c2cnn(Cc3cccnc3)c2C)c1 [Compound 35, 5-ethynyl-1-(2-(5-methyl-1-(pyridin-3-ylmethyl)-1H-pyrazol-4-yl)-2-oxoethyl)pyridin-2(1H)-one]",386 nM,69%,,
Cc1cc(C(=O)Cn2cc(C#N)ccc2=O)c(C)n1Cc1ccccc1 [CYM-5520],,,,activity at the S1PR2 receptor (S1PR2 [5]): weak allosteric agonist; aqueous solubility [6]: poor aqueous solubility
"C#Cc1ccc(=O)n(CC(=O)c2cnn(Cc3ccccc3)c2C)c1 [Compound 29, 1-(2-(1-benzyl-5-methyl-1H-pyrazol-4-yl)-2-oxoethyl)-5-ethynylpyridin-2(1H)-one]",23 nM,79%,69 nM,
"C#Cc1ccc(=O)n(CC(=O)c2cnn(Cc3cccc(C(=O)O)c3)c2C)c1 [Example 36, 3-((4-(2-(5-Ethynyl-2-oxopyridin-1(2H)-yl)acetyl)-5-methyl-1H-pyrazol-1-yl)methyl)benzoic Acid]",9800 nM,< 10%,,
"Cc1cc(C(=O)Cn2cc(Br)ccc2=O)c(C)n1Cc1ccccc1 [Compound 1, 1-(2-(1-benzyl-2,5-dimethyl-1H-pyrrol-3-yl)-2-oxoethyl)-5-bromopyridin-2(1H)-one]",58 nM,87%,52 nM,
C#Cc1ccn(CC(=O)c2cnn(Cc3ccccc3)c2C)c(=O)c1 [Example 38],3600 nM,17%,,
"Cc1c(C(=O)Cn2ccc(Br)cc2=O)cnn1Cc1ccccc1 [Example 37, 1-(2-(1-Benzyl-5-methyl-1H-pyrazol-4-yl)-2-oxoethyl)-4-bromopyridin-2(1H)-one]",4400 nM,15%,,
"O=C(Cn1cc(Br)ccc1=O)N1CCC(c2ccc(F)cc2)C1 (stereo not drawn) [Example 67, 5-Bromo-1-(2-(3-(4-fluorophenyl)pyrrolidin-1-yl)-2-oxoethyl)pyridin-2(1H)-one]",,42%,,
"Cc1cc(C(=O)C(C)n2cc(Br)ccc2=O)c(C)n1Cc1ccn(C)n1 (stereo not drawn) [Compound 12, 5-bromo-1-(1-(2,5-dimethyl-1-((1-methyl-1H-pyrazol-3-yl)methyl)-1H-pyrrol-3-yl)-1-oxopropan-2-yl)pyridin-2(1H)-one]",,41%,,
"Cc1ccccc1Cn1c(C)cc(C(=O)C(C)n2cc(Br)ccc2=O)c1C (stereo not drawn) [Example 64, 5-Bromo-1-(1-(2,5-dimethyl-1-(2-methylbenzyl)-1H-pyrrol-3-yl)-1-oxopropan-2-yl)pyridin-2(1H)-one]",,< 10%,,
"Cc1cc(C(=O)Cn2cc(I)ccc2=O)c(C)n1Cc1ccccc1 [Compound 2, 1-(2-(1-benzyl-2,5-dimethyl-1H-pyrrol-3-yl)-2-oxoethyl)-5-iodopyridin-2(1H)-one]",,57%,1470 nM,
"C=Cc1ccc(=O)n(C(C)C(=O)c2cnn(Cc3ccccn3)c2C)c1 (stereo not drawn) [Example 79, 1-(1-(5-Methyl-1-(pyridin-2-ylmethyl)-1H-pyrazol-4-yl)-1-oxopropan-2-yl)-5-vinylpyridin-2(1H)-one]",,,50 nM,
"Cc1c(C(=O)Cn2cc(Br)c(F)cc2=O)cnn1Cc1ccccc1 [Example 72, 1-(2-(1-Benzyl-5-methyl-1H-pyrazol-4-yl)-2-oxoethyl)-5-bromo-4-fluoropyridin-2(1H)-one]",,,91 nM,
